Here are results for two compounds from patent US8653134B2, “Hydroxyphenol derivatives, processes for the preparation thereof, pharmaceutical compositions them, and therapeutic uses thereof” (Merck Patent GmbH, priority 2005, dated 2014).

Data set [1] deals with T1, chimeric protein PPARγ-Gal4 (Homo sapiens, UniProt P37231).
T1 construct: expressed in transfected cells; host or cells: CV-1 cells (monkey kidney cells)
T1 sequence (P37231 238-503 limits assumed): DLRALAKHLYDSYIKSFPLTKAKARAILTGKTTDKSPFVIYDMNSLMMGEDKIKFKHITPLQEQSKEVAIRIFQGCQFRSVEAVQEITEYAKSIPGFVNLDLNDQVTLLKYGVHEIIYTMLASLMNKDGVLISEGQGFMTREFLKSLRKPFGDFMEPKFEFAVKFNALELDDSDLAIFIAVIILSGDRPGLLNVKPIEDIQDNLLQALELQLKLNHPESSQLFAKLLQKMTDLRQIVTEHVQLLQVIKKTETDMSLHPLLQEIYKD
In words: PPARγ-Gal4 transactivation test (luciferase reporter) in cotransfected CV-1 cells. It is filed as cell-based. On the procedure: The measurement of the PPAR activation was performed according to a technique described by Lehmann et al. (J. Biol. Chem., 270, (1995), 12953-12956). CV-1 cells (monkey kidney cells) are cotransfected with an expression vector for the chimeric protein PPARγ-Gal4 and with a “reporter” plasmid that allows expression of the luciferase gene placed under the control of a promoter comprising Gal4 response elements. The cells are seeded in 96-well microplates and cotransfected using a commercial reagent with the reporter plasmid (pG5-tk-pGL3) and the expression vector for the chimeric protein (PPARγ-Gal4). After incubation for 4 hours, whole culture medium (comprising 10% foetal calf serum) is added to the wells. After 24 hours, the medium is removed and replaced with whole medium comprising the test products. The products are left in contact with the cells for 18 hours. The cells are then lysed and the luciferase activity is measured using a luminometer. A PPARγ activation factor can then be calculated by means of the activation of the expression of the reporter gene induced by the product (relative to the control cells that have received no product). In the absence of the PPARγ ligand binding domain (vector expressing Gal4 alone), the luciferase activity measured in the presence of an agonist is zero. The transactivation test using the expression of a chimeric protein Gal-4-PPARγ makes it possible to determine also whether an agonist functions as a “full” agonist or as a “partial” agonist in this system. An agonist is “partial” in this system if it induces a weaker response, i.e. it has lower efficacy, than rosiglitazone, which is a “full” agonist. In concrete terms, in our system, the transactivation obtained at the plateau with a partial agonist will be between 20% and 50% of the maximum response (efficacy) at the plateau of rosiglitazone.

`CCCCCOc1cc2c(cc1OCc1cccc(C(=O)O)c1)C(=O)CC2` [Example 4, 3-(3-Oxo-6-pentyloxyindan-5-yloxymethyl)benzoic Acid] had a melting point of 190 °C. Besides, the “Concentration to reach the maximum stimulation of the PPARγ chimeric protein” value in data set [1] (CV-1 cells, Gal-4-PPARγ transactivation) was 12.5 µM. The Emax in data set [1] (transactivation at the plateau as % of the maximum response (efficacy) of rosiglitazone, CV-1 cells, read-out: Maximum stimulation of the PPARγ chimeric protein obtained with rosiglitazone) is 28%.
Consider `CCCCCCOc1cc2c(cc1OCCCC(=O)O)C(=O)CC2` [Example 7, 4-(6-hexyloxy-3-oxoindan-5-yloxy)butanoic acid], for which, in data set [1] (concentration 10 μM, CV-1 cells (monkey kidney cells), 18 hours contact, relative to control cells without agonist (=1)), the “Activation factor of the chimeric protein PPARγ-Gal4” value worked out at 9.10.
